Experiments:
[1] = biological target: SARS-CoV-2 papain-like protease (Severe acute respiratory syndrome coronavirus 2, UniProt P0DTD1); format: biochemical; conditions: for inhibition of papain-like protease activity versus negative control: 50 μM inhibitor, 0.2 μM enzyme (FIG. 4, FIG. 5)
[2] = Phase I, patients with advanced solid tumors; cited from earlier work
[3] = in vitro; conditions: African green monkey

SMILES	IC50 ([1]; 200 nM enzyme, 20 μM substrate, 10 min room temperature, read-out: IC50, inhibitory activity on novel coronavirus papain-like protease) [µM]	MTD (maximum tolerated dose) [2] [mg/m^2/d]	CC50 [3] [µM]	inhibition of papain-like protease activity versus negative control [1]
Br.COCCn1c2c([n+](Cc3cnccn3)c1C)C(=O)c1ccccc1C2=O [YM155, Sepantronium Bromide]	2.47	8.0	> 133	–
C[C@H]1COC2=C1C(=O)C(=O)c1c2ccc2c1CCCC2(C)C [cryptotanshinone, Cryptotanshinone]	–	–	> 300	significantly inhibit
Cc1coc2c1C(=O)C(=O)c1c-2ccc2c(C)cccc12 [tanshinone I, Tanshinone I]	–	–	> 300	significantly inhibit
